From US20160015725A1, “METHODS OF CONTROLLING TUMOR BIOENERGETICS NETWORKS” (THE WISTAR INSTITUTE OF ANATOMY AND BIOLOGY, priority 2012, published 2016) come the findings set out here.

Bounds are passed on as bounds.

The subject of test [1] is LN229 cells. Put plainly: Cell viability by MTT. It is filed as cell-based, human. The following applies: Gamitrinib combined with 2-DG vs each agent alone. The method, then: (§1) Various cell types were seeded in triplicate onto 96-well plates at 4×10^3 cells/well, treated with vehicle, Gamitrinib or 17-AAG (0-20 μM) for 12 h, and analyzed for changes in metabolic activity by an MTT assay. For determination of apoptosis, LN229 cells ([…]) were labeled for annexin V and propidium iodide (PI) (BD Biosciences), and analyzed by multiparametric flow cytometry (BD).

For the next test, the system named is WT BRAF melanoma cells. The test is described as follows: AMPK and autophagy signaling in WT BRAF melanoma cells. The test is classed as cell-based, human. The source says:
Human glioblastoma LN229, prostate adenocarcinoma PC3 or LNCaP cells, or normal NIH3T3 fibroblasts were obtained from the American Tissue Culture Collection (ATCC, Manassas, Va.), and maintained in culture according to the supplier's specifications. The following wild type (WT) BRAF N-Ras mutant melanoma cells WM852 and WM1366, and melanoma cells carrying a V600E activating mutation in the BRAF oncogene, 451Lu, Me11617 and WM983B were used in this study. WT or CypD knockout Mouse Embryonic Fibroblasts (MEFs, CypD−/−) were characterized earlier 40. In some experiments, CypD−/− MEFs were stably transfected with control plasmid, WT CypD or peptidyl prolyl isomerase (PPIase)-deficient H168Q CypD mutant cDNA, and analyzed for differential recruitment of HK-II to mitochondrial or cytosolic fractions.
(§2) For Western blotting, protein lysates were prepared from the different cell types in RIPA Buffer (150 mM NaCl, 1.0% Triton X-100, 0.5% sodium deoxycholate, 0.1% SDS, 50 mM Tris, pH 8.0) containing EDTA-free Protease Inhibitor Cocktail (Roche) and Phosphatase Inhibitor Cocktail 2 and 3 (Sigma Aldrich). Equal amounts of protein lysates were separated by SDS gel electrophoresis, transferred to PVDF membranes and incubated with primary antibodies of various specificities. Protein bands were detected by chemiluminescence.
(§3) Samples were imaged using a Leica TCS SP2 confocal microscope. For determination of autophagy, cells under the various conditions tested were harvested after 12 h, and analyzed with an antibody to […] (LC3) by Western blotting.

Test [2] deals with AMP-activated kinase (AMPK). The test is described as follows: AMPK phosphorylation in tumor cells, Western blotting. The test is classed as cell-based, human. On the technique in general: Immunoblotting shows a protein as a band on a membrane.
Test [3] relates to LN229 cells. The test is described as follows: Oxygen consumption, fluorimetric assay. The test is classed as cell-based, human. The following applies: tumor cells. The method, then: Treated tumor cells were analyzed using a fluorescence oxygen sensitive probe-based oxygen measuring kit (Luxcel Bioscience). For these experiments, LN229 cells were plated at increasing cell density (10-60×10^4/ml) on black body, clear bottom 96-well plates. The culture medium was replaced with 150 μl of phenol free DMEM containing 10% fetal bovine serum in the presence of 17-AAG or Gamitrinib (10 μM). Cells were further incubated with an oxygen-sensing probe (10 pmol/well), and 100 μl of heavy mineral oil was added to each well to seal the samples from ambient oxygen. After a 2 h incubation at 37° C., oxygen consumption was determined by quantifying the probe fluorescence signal in each well using a plate reader (Beckman Coulter) with excitation and emission wavelengths at 370 nm and 625 nm, respectively.

The test system of the next test is mTORC1. The test is described as follows: mTORC1 signaling in tumor cells, Western blotting. It is filed as cell-based, human.
In another test the test system is tumor cells. Put plainly: Autophagy (LC3 conversion, LC3-CFP puncta). The test is classed as cell-based, human. As to the method:
LN229 cells were transfected with various siRNAs, and mixed after 24 h with plasmid encoding cyan fluorescent protein (CFP) fused to human […] (LC3) cDNA in the presence of Lipofectamine 2000 Transfection Reagent (Invitrogen). After 48 h, transfected cells were fixed in 4% paraformaldehyde for 15 min at 37° C., washed, and examined by fluorescence microscopy (Nikon, E600). The numbers of CFP-LC3 punctate dots per cell was determined from three independent experiments. A minimum of 50 CFP-LC3-positive cells assessed from at least ten random fields per sample were counted in triplicate per each condition.
as §3

Test [4] relates to mutant BRAF melanoma cells. Put plainly: 3D organotypic spheroids, mutant BRAF. It is filed as cell-based, human. To be noted: collagen-embedded, 72 h. The method, then: (§4) For analysis of tumor cell survival in 3D organotypic cultures, melanoma spheroids were prepared as previously described. Briefly, 50 μl aliquots of the various melanoma cell types (5×10^4 cells/ml) were seeded onto 96-well plates coated with 1.5% agar (Difco, Sparks, Md.) in PBS. Spheroids were allowed to form for 72 h and then embedded in 100 μl of bovine collagen type I (Organogenesis, Canton, Mass.). Spheroids were overlaid with 100 μl of Tu2% growth medium and treated with inhibitors for 72 hours. Quantification of live vs. dead cells under the various conditions tested was performed by staining the melanoma spheroids after 72 h of treatment with calcein-AM (live) and Topro-3 (dead) (Invitrogen) for 1 h (data not shown).

Another test deals with BRAF WT melanoma cells. The test is described as follows: Melanoma cell viability by MTT, BRAF WT. The test is classed as cell-based, human. The method, then: as §1
Test [5] concerns FF2508 or MRC5 primary human fibroblasts. Put plainly: AMPK activation in normal fibroblasts. The test is classed as cell-based. As to the method:
as §2

For the next test, the system named is PC3 cells. Put plainly: ER stress luciferase-promoter reporter assay. It is filed as cell-based, human. To be noted: PC3, 20 h. The method, then: In another series of experiments, PC3 cells were transfected with control or Grp78-directed siRNA, and analyzed for cell viability after 24 h by an MTT assay. For promoter analysis, PC3 cells were plated in triplicate onto 48-well plates at 1.4×10^4 cells/well, and cotransfected with Firefly Luciferase-reporters for IRE1, ATF6, PERK or CHOP and a constitutive reporter (pTK-Renilla Luc) in a 10:1 ratio using X-tremeGENE reagent (Roche). After 24 h, cells were treated with vehicle, Gamitrinib, tunicamycin or 2-DG and analyzed after 20 h for Firefly and Renilla luciferase activity using a Dual Luciferase Reporter Assay System (Promega). Transfection of plasmid DNAs was carried out with lipofectamine 2000 (Invitrogen) according to published protocols. A PPIase-defective CypD H168Q mutant cDNA was generated by Quick-Change site-directed mutagenesis (Stratagene) using primers 5′-[…]-3′ (forward) and 5′-[…]-3′ (reverse) (mutated sequences are bolded). The inserted mutation (bolded) was confirmed by DNA sequencing, and cloned in a pcDNA3.0 expression vector (Invitrogen) for reconstitution experiments in CypD−/− MEFs.
(In general: In a reporter assay the amount or activity of a reporter protein is the signal.)

A further test deals with WT BRAF spheroids. The test is described as follows: 3D organotypic spheroids, WT BRAF. The following applies: collagen-embedded, 72 h. It is filed as cell-based, human. The method, then: as §4

Regarding `CO[C@H]1/C=C\C=C(/C)C(=O)NC2=CC(=O)C(NCCCCCC[P+](c3ccccc3)(c3ccccc3)c3ccccc3)=C(C[C@@H](C)C[C@H](OC)[C@H](O)[C@@H](C)/C=C(\C)[C@@H]1OC(N)=O)C2=O` [Gamitrinib], the “tumor cell killing, combined with 2-DG” value in the test with LN229 cells [1] is “increased tumor cell killing”. Also, the autophagy result with WT BRAF melanoma cells (WT BRAF cells) was “stimulated autophagy”. In addition, the AMPK phosphorylation entry in the test on WT BRAF melanoma cells (WT BRAF melanoma cells) is listed as “induced AMPK phosphorylation”. The “AMPK and eIF2α phosphorylation, combined with 2-DG” value in [2] (Gamitrinib combined with 2-DG) is “maximally stimulated AMPK and eIF2α phosphorylation”. The “AMPK phosphorylation, combination of metformin plus Gamitrinib” value in [2] (combination with metformin) was “did not further stimulate AMPK phosphorylation”. In [2] (tumor cells), the “AMPK activation compared with metformin” value is listed as “more prominent than that induced by metformin”, the “AMPK activation remained sustained” value is at least 9 h, the AMPK phosphorylation result is listed as “concentration dependent phosphorylation of AMP-activated kinase (AMPK)” and the “onset of AMPK activation” value was at most 30 min. Also, the “total AMPK levels” value in test [2] (tumor cells) is “not affected”. Moreover, in the test with LN229 cells [3], the oxygen consumption result is “reduced”. Moreover, the “phosphorylation of mTOR, 4EBP1 and p70S6 (mTORC1)” value in the test with mTORC1 is “concentration dependent suppression of phosphorylation of mTOR, and its downstream kinases 4EBP1 and p70S6”. The “autophagy (LC3-II conversion)” value in the test with tumor cells is on record as “strongly activated autophagy”. Moreover, in [4], the “cell killing in 3D spheroids” value is given as “efficiently killed” and the “concentrations that killed cells in 3D spheroids” value is 1 to 3 µM. The half-maximal inhibitory concentration (IC50) (usually the concentration that gives 50% inhibition) in the test on BRAF WT melanoma cells came to 6 ± 1.4 µM. Further, in test [5], the AMPK activation entry is on record as “did not activate AMPK”. Besides, in the test on PC3 cells, the “minimal CHOP promoter activity” value is “transcriptionally induced”; the “transcriptional activation of response elements of IRE-1, ATF-6 and PERK” value is recorded as “comparably induced transcriptional activation”. Besides, in the test with WT BRAF spheroids, the “cell death in 3D spheroids” value is reported as “resistant to cell death”.
